Results reported in patent US12083106B2, “Methods of using a pharmaceutical composition containing pirfenidone in sustained-release tablet form” (Excalibur Pharmaceuticals, Inc., priority 2011, dated 2024).

Experiments:
[1] = Pirfenidone bioavailability study in healthy volunteers; assay type: in vivo, human; conditions: 600 mg sustained-release tablet form; 11 healthy volunteers
Experimental: Pirfenidone Bioavailability Study in Healthy Volunteers According to the Pharmacopoeia Standards
Said analyses were performed by a laboratory authorized by the Mexican Health Secretariat (Data not shown).
Maximum concentration data evidenced that the bioavailability is extrapolated to other lower concentrations, i.e., 100, 200 or 400 mg.

[2] = test system: chronic renal failure secondary to primary nephropathy; assay: Prospective, open label, 12-month clinical trial in patients with primary nephropathy with renal damage; assay type: in vivo, human; conditions: oral sustained-release tablets every 12 hours, 12 months
Experimental: The present study is a prospective, open label, 12-month clinical trial including 30 patients with primary nephropathy, with renal damage (stages 1 to 4 of the KDIGO Classification) between 10 and 40 years of age, from both sexes. […] Said evaluation phase was useful so that the patient could become his/her own control. All of the patients received oral Pirfenidone (in sustained-release tablet form) administered every 12 hours containing 2400 mg/1.73 m^2 BSA, equivalent to […].; besides, they also received a conventional treatment appropriate for primary nephropathy and CRF, such as antihypertensives, alpha-ketoanalogues, phosphate chelating agents, angiotensin II antagonist, low-protein diet, etc. […] Two Doppler ultrasonographic studies were performed on each patient at the beginning of the study and at 12 months. Drug adverse events were evaluated and the loss of renal function and loss percentage were quantified. The use of Pirfenidone in renal function was monitored through cystatin C, plasma reciprocal creatinine and creatinine clearance in 24-hour urine collection.

[3] = test system: breast capsular contracture; assay: Pilot open prospective study in patients with breast capsular contracture (Baker scale, echosonography); assay type: in vivo, human; conditions: for Implant fibrous capsule ILQ thickness, mean: Inner Lower Quadrant; for Implant fibrous capsule IUQ thickness, mean: Inner Upper Quadrant; for Implant fibrous capsule OLQ thickness, mean: Outer Lower Quadrant; for Implant fibrous capsule OUQ thickness, mean: Outer Upper Quadrant
Experimental: It is a pilot, open, prospective, longitudinal and analytical essay in which 17 patients diagnosed with an important breast capsular contracture (Grade III and Grade IV, Baker Scale) were treated with Pirfenidone 600 mg administered orally as sustained-release tablets three times per day (every 8 hours) during six months. A blood sample was taken from each patient in order to determine the genetic markers (TGF-β1). […], three Breast echosonographies were made, one at the beginning, the other at the end of the treatment (6 months) and the last one 6 months after the suspension of Pirfenidone treatment (12 months). Two parameters were evaluated: antero-posterior diameter and capsular thickness in all its quadrants (contrasting thickness measurements with the radiological parameters established by Tomas Stavros, 2006 and the radiological clinical correlation of thickness vs Baker Scale established by Alon Zahavi M D, 2006 for the diagnosis of Capsular Contracture). Free liquid in the capsule was looked for, as well as retraction or rupture signs through 5-12 MHz linear or curve transductors. During 12 months, a Breast Clinical Evaluation was also conducted on a monthly basis using Baker Classification. Deformation, texture through palpation and sensitivity were evaluated. A registration of each evaluation was made with digital photographs. The clinical and radiological changes of each breast were evaluated by a plastic surgeon and a qualified radiologist. The statistical analysis included 20 cases, taking into account that 3 patients presented bilateral capsular contracture of different grade in each breast; a total of 20 breasts were analyzed. Finally, the statistical analysis of the ordinal scale variables was conducted with means and ranges; and for the contrasts, Wilcoxon matched-pairs signed-ranks and Chi^2 were used. With regard to the Ratio Interval variables, the mean and standard deviation were used; and for the contrast, Student's t test for paired samples was used in which a case is compared against another case.

TGF-β1 [4] = assay: TGF-β1 serum levels in female rats with silicone implants in mammary glands (ELISA); assay type: in vivo; conditions: daily oral regimen during 21 days; extended release formula before conversion into tablets
Experimental: (§1) TGF-β1 serum levels determination in female rats submitted to the placement of silicone implants in mammary glands for inducing contracture development are shown in FIG. 5. The animals were administered a daily regimen of oral Pirfenidone during 21 days. […] TGF-β1 levels were determined through a commercial ELISA kit.

TGF-β1 [5] = assay: TGF-β1 serum levels in animals with chronic hepatic damage by CCl4 (ELISA); assay type: in vivo; conditions: treated vs not treated
TNF-α [6] = assay: TNF-α serum levels in female rats with silicone implants in mammary glands (ELISA); assay type: in vivo; conditions: daily oral regimen during 21 days; extended release formula before conversion into tablets
Experimental: as §1, with “TNF-α” for “TGF-β1”, “6.” for “5.”, “animals” for “animals were”

TNF-α [7] = assay: TNF-α serum levels in animals with chronic hepatic damage by CCl4 (ELISA); assay type: in vivo; conditions: treated vs not treated
[8] = test system: progressive renal disease; conditions: animal models; cited from earlier work
[9] = renal failure patients treated with hemodialysis; cited from earlier work
[10] = test system: fibrosis in the mammary capsule; conditions: administered orally; female rats with silicone implants; cited from earlier work
[11] = test system: focal segmental glomerulosclerosis; conditions: nephrotic syndrome and focal segmental glomerulosclerosis; cited from earlier work
hepatic fibrosis = conditions: patients with hepatic fibrosis; expanded study; cited from earlier work
[12] = Initial (before treatment), 20 cases

With `Cc1ccc(=O)n(-c2ccccc2)c1` [Pirfenidone, 5-methyl-1-phenyl-2-(1H)-pyridone] the “time till which bioavailability is prolonged” value [1] was 12 h, the “renal damage progression rate” value ([2]; 2400 mg/1.73 m^2 BSA, phases 1-4 KDIGO) was “influenced positively” and the “drug side-effects in patients with primary nephropathy” value [2] was “limited to a minimum percentage of patients and disappeared rapidly”. For the same compound, the effect on proteinuria [2] was “beneficial effect”, the “histological damage to the affected kidneys (comparative ultrasonographic changes, beginning vs end of treatment)” value [2] was “detains the histological damage” and the “change of breast capsular contracture grade, all cases” value ([3]; 600 mg SR tablets orally three times per day, six months, 20 cases) was “reduction of breast capsular contracture grade”. The “cases with relapse of capsular contracture (WCSECC to grade III)” value ([3]; 6-month follow up after Pirfenidone discontinuation, 1 case grade IV, use of steroids and excessive exercise) was 5%, the “number of cases WCSECC (Without Clinical or Sonographic Evidence of Capsular Contracture)” value ([3]; 6 Months (end of treatment, 600 mg SR tablets three times per day), 20 cases) was 10 cases and the “number of cases with contracture grade I (Baker Scale)” value ([3]; 6 Months, 20 cases) was 5 cases. For the same compound, the “number of cases with contracture grade III (Baker Scale)” value ([3]; 6 Months, 20 cases) was 5 cases, the “patients with side effects (stomach aches, fatigue, skin dermatosis, photosensitivity)” value ([3]; 6 of 17 patients) was 35% and the “mean duration of side effects” value ([3]; 6 patients with side effects) was 10.8 days. The “BAKER SCALE Mean” value ([3]; 12-month follow-up, n = 20, P 0.0001 vs beginning) was 0.5, the “number of cases WCSECC” value ([3]; 12 months (6 months after suspension of treatment), 20 cases) was 14 cases and the “number of cases with contracture grade II (Baker Scale)” value ([3]; 12 months, 20 cases) was 1 cases. The “number of cases with contracture grade III (Baker Scale)” value ([3]; 12 months, 20 cases) was 5 cases, the “BAKER SCALE Mean (Range)” value ([3]; Beginning of the study, n = 20) was 4 (3-4) and the “Implant fibrous capsule ILQ thickness, mean” value ([3]; Beginning) was 1.86 centimeters. For the same compound, the “Implant fibrous capsule IUQ thickness, mean” value ([3]; Beginning) was 1.6 centimeters, the “Implant fibrous capsule OLQ thickness, mean” value ([3]; Beginning) was 1.775 centimeters and the “Implant fibrous capsule OUQ thickness, mean” value ([3]; Beginning) was 1.505 centimeters. For the same compound, the “Implant fibrous capsule ILQ thickness, mean” value ([3]; End) was 1.115 centimeters, the “Implant fibrous capsule IUQ thickness, mean” value ([3]; End) was 1.19 centimeters and the “Implant fibrous capsule OLQ thickness, mean” value ([3]; End) was 1.185 centimeters. The “Implant fibrous capsule OUQ thickness, mean” value ([3]; End) was 1.18 centimeters, the “number of cases with contracture grade III (Baker Scale)” value [3, 12] was 9 cases and the “number of cases with contracture grade IV (Baker Scale)” value [3, 12] was 11 cases. The “breast capsular contracture evolution, Baker scale (FIG. 1)” value ([3]; all the cases, after PFD administration) was “important improvement”, the “Initial AP Diameter of the breast implant, mean” value ([3]; echographically measured at the beginning (before treatment)) was 7.57 centimeters and the “AP Diameter at 12 months, mean” value ([3]; echographically measured, P = N.S. vs 6 months) was 6.085 centimeters. For the same compound, the “AP Diameter at 6 months, mean” value ([3]; echographically measured, P ≤ .001 vs beginning) was 6.425 centimeters, the “cases with gradual reduction of antero-posterior diameter (APD) and capsule thickness” value ([3]; echographies at 6 and 12 months, 19 cases) was 95% and the “cases showing retraction data and light subcapsular liquid” value ([3]; end of the study, group that passed from grade IV to grade III, two cases) was 10%. For the same compound, the “contracture state of left breast, single patient (FIG. 2)” value ([3]; initially grade III, after six-month PFD administration) was “Not Detectable by Ultrasound or Clinical Examination”, the “contracture state of both breasts, single patient (FIG. 3)” value ([3]; initially grade IV, end of the protocol) was “Capsular Contracture Not Detectable by Ultrasound or Clinical Examination” and the “cases reduced from grade IV to grade II” value ([3]; of 20 cases (1 case)) was 5%. The “cases initially grade IV that concluded WCSECC” value ([3]; of 20 cases (5 cases)) was 25%, the “cases reduced from grade IV to grade III” value ([3]; of 20 cases (5 cases)) was 25% and the “cases initially grade III that concluded WCSECC” value ([3]; of 20 cases (9 cases)) was 45%. For the same compound, the “cases concluded Without Clinical or Sonographic Evidence of Capsular Contracture (WCSECC)” value ([3]; of 20 cases (n=14)) was 70%, the “cases of relapse (FIG. 1)” value ([3]; six-month follow-up) was “one” and the “relapse, single patient (FIG. 2)” value ([3]; six-month follow-up) was “lack of relapse”. The “action on TGF-β production (TGF-β1 serum levels, FIG. 5)” value (TGF-β1 [4]) was “extremely potent and selective inhibiting action”, the “TGF-β1 serum level (FIG. 5)” value (TGF-β1 [5]) was “lower TGF-β1 serum level” and the “action on TNF-α (TNF-α serum levels, FIG. 6)” value (TNF-α [6]) was “extremely potent and selective TNF-α inhibiting action”. The “TNF-α serum level (FIG. 6)” value (TNF-α [7]) was “lower TNF-α serum level”, the TGF-β expression [8] was “reduces TGF-β expression” and the “development of progressive renal disease” value [8] was “Can prevent the development of progressive renal disease”. For the same compound, the “growth, development and toxic effects in treated animals” value [8] was “grew and developed normally and without toxic effects”, the proteinuria levels [8] was “Reduces proteinuria levels” and the “renal function / collagen accumulation in the renal cortex” value [8] was “Improves renal function reducing collagen accumulation in the renal cortex”. The “urea nitrogen and serum creatinine levels” value [8] was “Reduces urea nitrogen and serum creatinine levels”, the “need to adjust dose in patients with renal damage (pharmacokinetics)” value [9] was “not necessary to adjust the pirfenidone dose” and the “tolerability in patients with Terminal Chronic Renal Failure (TCRF)” value [9] was “well tolerated”. The “development of fibrosis in the mammary capsule” value [10] was “prevents the development of the characteristic fibrosis”, the “delay of renal function impairment” value [11] was “favorable results” and the “effects evidenced through hepatic biopsy” value (hepatic fibrosis) was “beneficial effects”.
